Experiment [1] has as its target human Cat S (Homo sapiens (Human), UniProt P25774). Nature of the experiment: Cathepsin enzyme inhibition assay (human Cat S). The format is biochemical. As to conditions: enzyme 1 nM, substrate Z-Val-Val-Arg-AMC 20 μM. As to the method:
(§1) Cathepsin Enzyme Inhibition Assay
(§2) Enzyme activity is measured by observing the increase in fluorescence intensity caused by cleavage of a peptide substrate containing a fluorophore whose emission is quenched in the intact peptide.
(§3) Assay buffer: 100 mM potassium phosphate pH 6.5, EDTA-Na 5 mM, Triton X-100 0.001%, DTT 5 mM.
(§4) Enzymes (all at 1 nM): human and mouse Cathepsin S, Cat K, Cat B, Cat L.
(§5) Substrate (20 μM): Z-Val-Val-Arg-AMC, except for Cat K which uses Z-Leu-Arg-AMC (both from Bachem).
Enzyme is added to the substance dilutions in 96-well microtitre plates and the reaction is started with substrate. […] IC50 are calculated by standard methods.
Inhibition of human Cat S, mouse Cat S, human Cat K, human Cat B, human Cat L and mouse Cat L have been measured separately.

Experiment [2] concerns the target human Cat L (Homo sapiens (Human), UniProt P07711). Nature of the experiment: Cathepsin enzyme inhibition assay (human Cat L). The format is biochemical. As to conditions: enzyme 1 nM, substrate Z-Val-Val-Arg-AMC 20 μM. How it is done:
as §1, §2, §3, §4, §5
Excitation 360 nm, Emission 465 nm.
Enzyme is added to the substance dilutions in 96-well microtitre plates and the reaction is started with substrate. Fluorescence emission is measured over 20 minutes, during which time a linear increase is observed in the absence of inhibitor. IC50 are calculated by standard methods.
Inhibition of human Cat S, mouse Cat S, human Cat K, human Cat B, human Cat L and mouse Cat L have been measured separately. The results obtained for human Cat S and L for representative compounds of the invention are expressed in the following table in μM.

Counter-ions that a name gives are not always drawn.

The term IC50 denotes the midpoint of a concentration-inhibition curve.

Chain of human Cat L (P07711 114-333): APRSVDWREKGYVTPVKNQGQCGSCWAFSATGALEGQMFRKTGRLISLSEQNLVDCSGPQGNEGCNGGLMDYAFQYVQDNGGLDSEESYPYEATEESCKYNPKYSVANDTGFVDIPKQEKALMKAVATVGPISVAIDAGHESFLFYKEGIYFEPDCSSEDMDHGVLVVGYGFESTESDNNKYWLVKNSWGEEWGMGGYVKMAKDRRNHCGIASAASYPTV
Chain of human Cat S (P25774 115-331): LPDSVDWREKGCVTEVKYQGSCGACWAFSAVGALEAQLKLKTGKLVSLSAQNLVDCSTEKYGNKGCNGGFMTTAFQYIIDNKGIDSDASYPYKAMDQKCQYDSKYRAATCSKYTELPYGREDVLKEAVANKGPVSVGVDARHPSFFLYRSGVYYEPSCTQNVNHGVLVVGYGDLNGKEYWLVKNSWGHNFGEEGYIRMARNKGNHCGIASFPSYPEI

Consider `N#CC1(NC(=O)[C@@H]2C[C@@H](S(=O)(=O)c3ccccc3Cl)CN2C(=O)C2(c3ncc(Cl)cc3F)CNC2)CC1` [Example 12, (2S,4R)-1-(3-(5-Chloro-3-fluoropyridin-2-yl)azetidine-3-carbonyl)-4-(2-chlorophenylsulfonyl)-N-(1-cyanocyclopropyl)pyrrolidine-2-carboxamide], for which the figures for the IC50 in experiment [1] (pH 6.5) and in experiment [2] (pH 6.5) were 1.07 nM and 23.6 nM, respectively.

With `N#CC1(NC(=O)[C@@H]2C[C@@H](S(=O)(=O)c3ccccc3Cl)CN2C(=O)C2(c3ncc(Br)cc3F)CNC2)CC1` [Example 13, (2S,4R)-1-[3-(5-Bromo-3-fluoro-pyridin-2-yl)-azetidine-3-carbonyl]-4-(2-chloro-benzenesulfonyl)-pyrrolidine-2-carboxylic acid (1-cyano-cyclopropyl)-amide], the IC50 is 1.09 nM in experiment [1] (pH 6.5) and 4.6 nM in experiment [2] (pH 6.5).

For the compound `CCN1CC(C(=O)N2C[C@H](S(=O)(=O)c3ccccc3Cl)C[C@H]2C(=O)NC2(C#N)CC2)(c2ncc(Br)cc2F)C1` [Example 15, (2S,4R)-1-[3-(5-Bromo-3-fluoro-pyridin-2-yl)-1-ethyl-azetidine-3-carbonyl]-4-(2-chloro-benzenesulfonyl)-pyrrolidine-2-carboxylic acid (1-cyano-cyclopropyl)-amide], the IC50 in experiment [1] (pH 6.5) is 0.721 nM; in experiment [2] (pH 6.5), 20.1 nM.

Take `CN1CC(C(=O)N2C[C@H](S(=O)(=O)c3ccccc3Cl)C[C@H]2C(=O)NC2(C#N)CC2)(c2ncc(Cl)cc2F)C1` [Example 16, (2S,4R)-4-(2-Chloro-benzenesulfonyl)-1-[3-(5-chloro-3-fluoro-pyridin-2-yl)-1-methyl-azetidine-3-carbonyl]-pyrrolidine-2-carboxylic acid (1-cyano-cyclopropyl)-amide]: the half-maximal inhibitory concentration (IC50) in experiment [1] (pH 6.5) was 0.525 nM; in experiment [2] (pH 6.5), 39.8 nM.

`N#CC1(NC(=O)[C@@H]2C[C@@H](S(=O)(=O)c3ccc(OCC(F)(F)F)cc3Cl)CN2C(=O)C2(c3ncc(Br)cc3F)CNC2)CC1` [Example 19, (2S,4R)-1-(3-(5-Bromo-3-fluoropyridin-2-yl)azetidine-3-carbonyl)-4-(2-chloro-4-(2,2,2-trifluoroethoxy)phenylsulfonyl)-N-(1-cyanocyclopropyl)pyrrolidine-2-carboxamide]: the figures for the IC50 in experiment [1] (pH 6.5) and in experiment [2] (pH 6.5) were 1.67 nM and 33.8 nM, respectively.

For the compound `N#CC1(NC(=O)[C@@H]2C[C@@H](S(=O)(=O)c3ccc(OCC(F)(F)F)cc3Cl)CN2C(=O)C2(c3ncc(Cl)cc3F)CNC2)CC1` [Example 20, (2S,4R)-1-(3-(5-Chloro-3-fluoropyridin-2-yl)azetidine-3-carbonyl)-4-(2-chloro-4-(2,2,2-trifluoroethoxy)phenylsulfonyl)-N-(1-cyanocyclopropyl)pyrrolidine-2-carboxamide], the IC50 in experiment [1] (pH 6.5) was found to be 2.92 nM; in experiment [2] (pH 6.5) it was 78.2 nM.

Turning to `CC(C)(C)OC(=O)N1CCC1(C(=O)N1C[C@H](S(=O)(=O)c2ccc(F)cc2Cl)C[C@H]1C(=O)NC1(C#N)CC1)c1ncc(Cl)cc1F` (stereo partly drawn) [Example 21, 2-[(2S,4R)-4-(2-Chloro-4-fluoro-benzenesulfonyl)-2-(1-cyano-cyclopropylcarbamoyl)-pyrrolidine-1-carbonyl]-2-(5-chloro-3-fluoro-pyridin-2-yl)-azetidine-1-carboxylic acid tert-butyl ester], the IC50 was found to be 1.04 nM in experiment [1] (pH 6.5) and 1340 nM in experiment [2] (pH 6.5).

Regarding `CC(C)(C)OC(=O)N1CCC1(C(=O)N1C[C@H](S(=O)(=O)c2ccc(F)cc2Cl)C[C@H]1C(=O)NC1(C#N)CC1)c1ncc(Br)cc1F` (stereo partly drawn) [Example 22, 2-(5-Bromo-3-fluoro-pyridin-2-yl)-2-[(2S,4R)-4-(2-chloro-4-fluoro-benzenesulfonyl)-2-(1-cyano-cyclopropylcarbamoyl)-pyrrolidine-1-carbonyl]-azetidine-1-carboxylic acid tert-butyl ester], the IC50 is 1.26 nM in experiment [1] (pH 6.5) and 1020 nM in experiment [2] (pH 6.5).

Turning to `CC(C)(C)OC(=O)N1CCC1(C(=O)N1C[C@H](S(=O)(=O)c2ccc(F)cc2Cl)C[C@H]1C(=O)NC1(C#N)CC1)c1ncc(Cl)cc1F` (stereo partly drawn) [Example 23, 2-[(2S,4R)-4-(2-Chloro-4-fluoro-benzenesulfonyl)-2-(1-cyano-cyclopropylcarbamoyl)-pyrrolidine-1-carbonyl]-2-(5-chloro-3-fluoro-pyridin-2-yl)-azetidine-1-carboxylic acid tert-butyl ester], the IC50 in experiment [1] (pH 6.5) is 0.377 nM; in experiment [2] (pH 6.5) it was 2010 nM.

Turning to `CC(C)(C)OC(=O)N1CCC1(C(=O)N1C[C@H](S(=O)(=O)c2ccc(F)cc2Cl)C[C@H]1C(=O)NC1(C#N)CC1)c1ncc(Cl)cc1F` (stereo partly drawn) [Example 24, 2-[(2S,4R)-4-(2-Chloro-4-fluoro-benzenesulfonyl)-2-(1-cyano-cyclopropylcarbamoyl)-pyrrolidine-1-carbonyl]-2-(5-chloro-3-fluoro-pyridin-2-yl)-azetidine-1-carboxylic acid tert-butyl ester], the IC50 was determined as 4.56 nM in experiment [1] (pH 6.5) and 922 nM in experiment [2] (pH 6.5).

`CC(C)(C)OC(=O)N1CCC1(C(=O)N1C[C@H](S(=O)(=O)c2ccc(F)cc2Cl)C[C@H]1C(=O)NC1(C#N)CC1)c1ncc(Br)cc1F` (stereo partly drawn) [Example 25, 2-(5-Bromo-3-fluoro-pyridin-2-yl)-2-[(2S,4R)-4-(2-chloro-4-fluoro-benzenesulfonyl)-2-(1-cyano-cyclopropylcarbamoyl)-pyrrolidine-1-carbonyl]-azetidine-1-carboxylic acid tert-butyl ester]: the IC50 in experiment [1] (pH 6.5) was 0.492 nM; in experiment [2] (pH 6.5) it was 2910 nM.

Take `CC(C)(C)OC(=O)N1CCC1(C(=O)N1C[C@H](S(=O)(=O)c2ccc(F)cc2Cl)C[C@H]1C(=O)NC1(C#N)CC1)c1ncc(Br)cc1F` (stereo partly drawn) [Example 26, 2-(5-Bromo-3-fluoro-pyridin-2-yl)-2-[(2S,4R)-4-(2-chloro-4-fluoro-benzenesulfonyl)-2-(1-cyano-cyclopropylcarbamoyl)-pyrrolidine-1-carbonyl]-azetidine-1-carboxylic acid tert-butyl ester]: the figures for the IC50 in experiment [1] (pH 6.5) and in experiment [2] (pH 6.5) were 4.45 nM and 471 nM, respectively.

Consider `C[C@H](Oc1ccc(S(=O)(=O)[C@@H]2C[C@@H](C(=O)NC3(C#N)CC3)N(C(=O)C3(c4ncc(Br)cc4F)CCN3C(=O)OC(C)(C)C)C2)c(Cl)c1)C(F)(F)F` (stereo partly drawn) [Example 30, 2-(5-Bromo-3-fluoro-pyridin-2-yl)-2-[(2S,4R)-4-[2-chloro-4-((S)-2,2,2-trifluoro-1-methyl-ethoxy)-benzenesulfonyl]-2-(1-cyano-cyclopropylcarbamoyl)-pyrrolidine-1-carbonyl]-azetidine-1-carboxylic acid tert-butyl ester], for which the IC50 came to 2.22 nM in experiment [1] (pH 6.5) and 1060 nM in experiment [2] (pH 6.5).

In the case of `N#CC1(NC(=O)[C@@H]2C[C@@H](S(=O)(=O)c3ccc(F)cc3Cl)CN2C(=O)C2(c3ncc(Cl)cc3F)CCN2)CC1` (stereo partly drawn) [Example 31, (2S,4R)-4-(2-Chloro-4-fluoro-benzenesulfonyl)-1-[2-(5-chloro-3-fluoro-pyridin-2-yl)-azetidine-2-carbonyl]-pyrrolidine-2-carboxylic acid (1-cyano-cyclopropyl)-amide; hydrochloride], the IC50 in experiment [1] (pH 6.5, hydrochloride) came out at 1.57 nM; in experiment [2] (pH 6.5, hydrochloride), 81.6 nM.

In the case of `C[C@H](Oc1ccc(S(=O)(=O)[C@@H]2C[C@@H](C(=O)NC3(C#N)CC3)N(C(=O)C3(c4ncc(Br)cc4F)CN(C(=O)OC(C)(C)C)C3)C2)c(Cl)c1)C(F)(F)F` [Example 33, 3-(5-Bromo-3-fluoro-pyridin-2-yl)-3-[(2S,4R)-4-[2-chloro-4-((S)-2,2,2-trifluoro-1-methyl-ethoxy)-benzenesulfonyl]-2-(1-cyano-cyclopropylcarbamoyl)-pyrrolidine-1-carbonyl]-azetidine-1-carboxylic acid tert-butyl ester], the IC50 was found to be 3.54 nM in experiment [1] (pH 6.5) and 89.5 nM in experiment [2] (pH 6.5).

For `C[C@H](Oc1ccc(S(=O)(=O)[C@@H]2C[C@@H](C(=O)NC3(C#N)CC3)N(C(=O)C3(c4ncc(Br)cc4F)CNC3)C2)c(Cl)c1)C(F)(F)F` [Example 34, (2S,4R)-1-[3-(5-Bromo-3-fluoro-pyridin-2-yl)-azetidine-3-carbonyl]-4-[2-chloro-4-((S)-2,2,2-trifluoro-1-methyl-ethoxy)-benzenesulfonyl]-pyrrolidine-2-carboxylic acid (1-cyano-cyclopropyl)-amide], the IC50 in experiment [1] (pH 6.5) came to 3.48 nM; in experiment [2] (pH 6.5), 14.2 nM.

`N#CC1(NC(=O)[C@@H]2C[C@@H](S(=O)(=O)c3ccc(F)cc3Cl)CN2C(=O)C2(c3ncc(Cl)cc3F)CCN2)CC1` (stereo partly drawn) [Example 35, (2S,4R)-4-(2-Chloro-4-fluoro-benzenesulfonyl)-1-[2-(5-chloro-3-fluoro-pyridin-2-yl)-azetidine-2-carbonyl]-pyrrolidine-2-carboxylic acid (1-cyano-cyclopropyl)-amide hydrochloride]: the IC50 was 1.3 nM in experiment [1] (pH 6.5, hydrochloride) and 1440 nM in experiment [2] (pH 6.5, hydrochloride).

With `N#CC1(NC(=O)[C@@H]2C[C@@H](S(=O)(=O)c3ccc(F)cc3Cl)CN2C(=O)C2(c3ncc(Br)cc3F)CCN2)CC1` (stereo partly drawn) [Example 36, (2S,4R)-1-[2-(5-Bromo-3-fluoro-pyridin-2-yl)-azetidine-2-carbonyl]-4-(2-chloro-4-fluoro-benzenesulfonyl)-pyrrolidine-2-carboxylic acid (1-cyano-cyclopropyl)-amide hydrochloride], the IC50 in experiment [1] (pH 6.5) came out at 1.42 nM; in experiment [2] (pH 6.5), 621 nM.
